Laboratory results: patent US20140186325A1, “Methods of Cancer Treatment and Prevention Through the Modulation of SIRT4 Activity” (President and Fellows of Harvard College, priority 2011, published 2014)

What was measured:
Format in all cases: cell-based
HepG2 cells [1] = assay: Relative ATP/ADP ratio of HepG2 cells stably expressing human SIRT4 or SIRT4 mutant; details: CPT (14 μM) + oligomycin (5 g/ml) for 18 hours
Experimental: The relationship between SIRT4 and mitochondrial metabolism was next investigated. The relative ATP/ADP ratio of HepG2 cells that stably expressed human SIRT4 or SIRT4 mutant was measured following treatment with DMSO, CPT (14 μM) or CPT+oligomycin ([…]) for 18 hours.

SIRT4 protein [2] = assay: SIRT4 protein expression by western blot, HEK293T cells
SIRT4 protein [3] = assay: SIRT4 protein expression by western blot, MEF cells
SIRT4 = SIRT4 expression level after genotoxic stress, HEK293T cells; details: 14 μM CPT, 25 μM ETS, 48 μM tunicamycin
Description: The relationship between sirtuin expression and DNA damage was next investigated.

SIRT4 KO cells = assay: Glutamine uptake of SIRT4 KO cells with glutaminolysis inhibitors; details: for glutamine uptake: 10 μM BPTES, 50 μM EGCG
Experimental: (§1) As described above, SIRT4 represses glutamine-derived mitochondrial anaplerosis. This node was investigated further using a pharmacological and genetic approach. GLS is the first required enzyme for mitochondrial glutamine metabolism, and catalyzes the hydrolysis of glutamine to glutamate and ammonia. […] Drugs that block glutamate dehydrogenase (GDH) activity were also examined. There were no effects of a GDH inhibitor, 50 μM of Epigallocatechin gallate (EGCG), in glutamine uptake. Moreover, SIRT4 overexpression could no longer inhibit glutamine uptake and ammonia production when GLS1 was targeted using short hairpin RNA (shRNA) (FIG. 13b, c). Finally, cells were treated with chemical inhibitors of mitochondrial glutaminolysis in order to probe the model that suppressing this node could block the repression of glutamine uptake by DNA damage.

HepG2 cells [4] = assay: Metabolite levels in culture media (BioProfile FLEX analyzer), HepG2 cells; details: 14 μM for 12 hours
Experimental: (§2) The relationship between glutamine metabolism and DNA damage was investigated. HepG2 cells and MEF cells were treated with either 14 μM camptothecin (CPT) for 12 hours or 50 J/m^2 ultra-violet (UV) radiation, both of which are known to induce DNA damage in cells. Glucose, glutamine, lactate and ammonia (NH4^+) levels in culture media were measured using the BioProfile FLEX analyzer (Nova Biomedical) according to the manufacturer's instructions.

MEF cells = assay: Metabolite levels in culture media (BioProfile FLEX analyzer), MEF cells; details: 14 μM for 12 hours
Experimental: as §2

[5] = test system: mitochondrial glutaminolysis; assay: Repression of glutamine uptake by UV in the presence of inhibitors of mitochondrial glutaminolysis; details: in the presence of the inhibitor
Experimental: as §1

SIRT4 KO MEFs = assay: Proliferation of SIRT4 KO MEFs; details: SIRT4 KO versus WT MEFs cultured with BPTES
Experimental: To test whether enhanced glutamine metabolism drove the proliferative phenotype of KO cells, cells were cultured with BPTES and proliferation was measured.

HeLa cells = assay: Proliferation of control and SIRT4-expressing HeLa cells; details: media containing BPTES

Question: With CC[C@H]1/C=C/C=C/C[C@@H](C)[C@H](O)[C@@](C)(O)C(=O)[C@@H](C)[C@H](O)[C@@H](C)C(=O)[C@@H](C)[C@H](O)[C@@H](C)/C=C/C(=O)O[C@@H]2[C@H](C)[C@H](CC1)O[C@]1(CC[C@H](C)[C@H](C[C@@H](C)O)O1)[C@H]2C [oligomycin] as the molecule, how does the “difference in ATP/ADP ratio between SIRT4 and mutant SIRT4 over-expressing cells after CPT” value (HepG2 cells [1]) read?
Answer: The value was “difference disappeared”.

Question: Which SIRT4 protein expression (SIRT4 protein [2]) does the source give for COc1cc([C@@H]2c3cc4c(cc3[C@@H](O[C@@H]3O[C@@H]5CO[C@@H](C)O[C@H]5[C@H](O)[C@H]3O)[C@H]3COC(=O)[C@H]23)OCO4)cc(OC)c1O [ETS, etoposide] here?
Answer: The SIRT4 protein expression was “increased SIRT4 protein expression”.

Question: What about the SIRT4 protein expression (SIRT4 protein [3]) of the same molecule?
Answer: The SIRT4 protein expression was “increased SIRT4 protein expression”.

Question: How did the “level of SIRT4 expression versus length of exposure” value (SIRT4) turn out when tunicamycin was run?
Answer: Its value is “correlated with the length of time”.

Question: For O=C(O[C@@H]1Cc2c(O)cc(O)cc2O[C@@H]1c1cc(O)c(O)c(O)c1)c1cc(O)c(O)c(O)c1 [EGCG, Epigallocatechin gallate], which glutamine uptake (SIRT4 KO cells) is on record?
Answer: Its glutamine uptake is “no effects”.

Question: Which results are given for CC[C@@]1(O)C(=O)OCc2c1cc1n(c2=O)Cc2cc3ccccc3nc2-1 [CPT, camptothecin]?
Answer: NH4+ production (HepG2 cells [4]): significant reductions; glutamine consumption (HepG2 cells [4]): significant reductions; NH4+ production (MEF cells): significant reductions; glutamine consumption (MEF cells): significant reductions; level of SIRT4 expression versus length of exposure (SIRT4): correlated with the length of time; SIRT4 protein expression (SIRT4 protein [2]): increased SIRT4 protein expression; SIRT4 protein expression (SIRT4 protein [3]): increased SIRT4 protein expression

Question: With O=C(Cc1ccccc1)Nc1nnc(CCSCCc2nnc(NC(=O)Cc3ccccc3)s2)s1 [BPTES, bis-2-(5-phenylacetoamido-1,2,4-thiadiazol-2-yl)ethyl sulfide] as the molecule, how does the “increased glutamine consumption of SIRT4 KO cells” value (SIRT4 KO cells; 10 μM) read?
Answer: Its value is “rescued”.

Question: What about the glutamine uptake (SIRT4 KO cells) of the same molecule?
Answer: Its glutamine uptake is “repressed glutamine uptake”.

Question: What about the “repression of glutamine uptake by UV treatment” value [5] of the same molecule?
Answer: Its value is “could no longer repress glutamine uptake”.

Question: And the “increased proliferation of KO cells” value (SIRT4 KO MEFs)?
Answer: The value was “completely abrogated”.

Question: What about the “proliferation of control and SIRT4-expressing cells” value (HeLa cells) of the same molecule?
Answer: The value was “proliferated at similar rates”.
